Laboratory results published in patent EP0185259A2, “Pteridines, process for their preparation, and their use as intermediates or as medicaments” (Dr. Karl Thomae GmbH, priority 1984, dated 1986).

Legend:
[1] = test system: Phosphodiesterase (PDE) von Humanthrombozyten; assay: PDE inhibition (PDE assay), enzyme from human platelets, 3H-cAMP substrate; type: biochemical; conditions: 1 µmol/l 3H-cAMP as substrate, linear regression, read-out: PDE-Hemmung (IC50 in µmol/l) Thrombozyten
Description: (§1) Beispielsweise wurden die Verbindungen • A = 4,7-Dimorpholino-6-phenyl-2-piperazino-pteridin, • B = 4-Morpholino-7-(1-oxidothiomorpholino)-2-piperazino-6-phenyl-pteridin, • C = 7-Benzylamino-6-phenyl-2-piperazino-4-thiomorpholino- pteridin, • D = 7-Dimethylamino-6-phenyl-2-piperazino-4-pyrrolidino- pteridin und • E = 7-Benzylamino-4-(N-methyl-2'-hydroxyethylamino)-2-piperazino-pteridin auf ihre Hemmwirkung auf die Phosphodiesterase (PDE) von Tumorzellen und von Humanthrombozyten in vitro in Anlehnung an die von Pöch et al. beschriebenen Methode wie folgt untersucht (siehe Naunyn-Schmiedebergs Arch. Pharmak.
(§2) Die Phosphodiesterase wurde aus B16 Melanomgewebe von Mäusen durch Zentrifugation des Gewebehomogenates bei 5.000 x g (15 min. 4°C) gewonnen. Die Homogenisation der Gewebe erfolgte durch wiederholtes Frieren/Auftauen und Homogenisation nach Potter-Elvehjem bzw. durch Ultraschall. Der die PDE enthaltende Homogenat-Überstand wurde portioniert und bei -25°C tiefgefroren.
Die Gewinnung der Phosphordiesterase aus Humanthrombozyten erfolgte in gleicher Weise.
(§3) Die Bestimmung der PDE-Hemmung durch die Prüfsubstanzen erfolgte mit 1 µmol/l ^3H-cAMP als Substrat. Die PDE-Hemmung wurde durch Messung des Abbaus des eingesetzten Substrats ^3H-cAMP zu ^3H-AMP im Vergleich zur Kontrolle ohne Prüfsubstanz erfaßt.
(§4) Das gebildete ^3H-AMP wurde durch eine Zinksulfat-Bariumhydroxid-Fällung vom verbliebenen ^3H-CAMP abgetrennt.

[2] = target: Phosphodiesterase aus B16 Melanomgewebe von Mäusen; assay: PDE inhibition (PDE assay), enzyme from B16 melanoma tissue, 3H-cAMP substrate; type: biochemical; conditions: PDE from mouse B16 melanoma tissue; 1 µmol/l 3H-cAMP as substrate; linear regression; read-out: PDE-Hemmung (IC50 in µmol/l) B16-Tumorzellen
Description: as §1, §2, §3, §4

Mäusen = assay: Orientating acute toxicity in mice, single oral dose; type: in vivo; conditions: observation time 14 days; for Orientierende aktute Toxizität (Tiere gestorben): single oral dose of 250 mg, animals dead of animals treated; for Orientierende aktute Toxizität: single oral dose
Description: Die orientierende akute Toxizität der zu untersuchenden Substanzen wurde orientierend an Gruppen von je […] Mäusen nach oraler Gabe einer Einzeldosis bestimmt (Beobachtungszeit: 14 Tage) : […]

SMILES	IC50 [1] [µmol/L]	IC50 [2] [µmol/L]	Orientierende aktute Toxizität (Tiere gestorben) (Mäusen) [von 5]	Orientierende aktute Toxizität (Mäusen) [mg]
c1ccc(-c2nc3c(N4CCOCC4)nc(N4CCNCC4)nc3nc2N2CCOCC2)cc1 [A, 4,7-Dimorpholino-6-phenyl-2-piperazino-pteridin]	0.54	4.3	0	> 250
[O-][S+]1CCN(c2nc3nc(N4CCNCC4)nc(N4CCOCC4)c3nc2-c2ccccc2)CC1 [B, 4-Morpholino-7-(1-oxidothiomorpholino)-2-piperazino-6-phenyl-pteridin]	2.2	3.1		
c1ccc(CNc2nc3nc(N4CCNCC4)nc(N4CCSCC4)c3nc2-c2ccccc2)cc1 [C, 7-Benzylamino-6-phenyl-2-piperazino-4-thiomorpholino-pteridin]	0.5	0.096	0	> 250
CN(C)c1nc2nc(N3CCNCC3)nc(N3CCCC3)c2nc1-c1ccccc1 [D, 7-Dimethylamino-6-phenyl-2-piperazino-4-pyrrolidino-pteridin]	3.6	0.78	0	> 250
CN(CCO)c1nc(N2CCNCC2)nc2nc(NCc3ccccc3)cnc12 [E, 7-Benzylamino-4-(N-methyl-2'-hydroxyethylamino)-2-piperazino-pteridin]	3.7	8.3	0	> 250
